Like-named read-outs stand apart in the source and are kept apart here.
How the values were obtained:
HTT mRNA = assay: RT-qPCR splicing assay, HTT mRNA canonical (CJ) and alternative (AJ) junction; assay type: cell-based, human
Experimental: (§1) Compounds described herein were used to modulate RNA transcript abundance in cells. The expression of a target mRNA was measured by detecting the formation of an exon-exon junction in the canonical transcript (CJ). A compound mediated exon-inclusion event was detected by observing an increase in formation of a new junction with an alternative exon (AJ). Real-time qPCR assays were used to detect these splicing switches and interrogate the potency of various compounds towards different target genes. A high-throughput real time quantitative PCR (RT-qPCR) assay was developed to measure these two isoforms of the mRNA (CJ and AJ) for exemplary genes, such as HTT, SMN2, and MYB, together with a control housekeeping gene, GAPDH or GUSB or PPIA, used for normalization. Briefly, the A673 or K562 cell line was treated with various compounds described herein (e.g., compounds of Formula (I)). After treatment, the levels of the HTT, MYB, or SMN2 mRNA targets were determined from each sample of cell lysate by cDNA synthesis followed by qPCR.
(§2) The A673 cell line was cultured in DMEM with 10% FBS. Cells were diluted with full growth media and plated in a 96-well plate (15,000 cells in 100 ul media per well). The plate was incubated at 37° C. with 5% CO2 for 24 hours to allow cells to adhere. An 11-point 3-fold serial dilution of the compounds was made in DMSO then diluted in media in an intermediate plate. Compounds were transferred from the intermediate plate to the cell plate with the top dose at a final concentration of 10 uM in the well. Final DMSO concentration was kept at or below 0.25%. The cell plate was returned to the incubator at 37° C. with 5% CO2 for an additional 24 hours.
(§3) The K562 cell line was cultured in IMDM with 10% FBS. For K562, cells were diluted with full growth media and plated in either a 96-well plate (50,000 cells in 50 uL media per well) or a 384-well plate (8,000-40,000 cells in 45 uL media per well). An 11-point 3-fold serial dilution of the compounds were made in DMSO then diluted in media in an intermediate plate. Compound was transferred from the intermediate plate to the cell plate with the top dose at a final concentration of 10 uM in the well. Final DMSO concentration was kept at or below 0.25%. Final volume was 100 uL for 96-well plate and 50 uL for 384-well plate. The cell plate was then placed in an incubator at 37° C. with 5% CO2 for 24 hours.
(§4) The cells were then gently washed with 50 uL-100 uL cold PBS before proceeding to addition of lysis buffer. 30 uL-50 μL of room temperature lysis buffer with DNAse I (and optionally RNAsin) was added to each well. Cells were shaken/mixed thoroughly at room temperature for 5-10 minutes for lysis to take place and then 3 uL-5 μL of room temperature stop solution was added and wells were shaken/mixed again. After 2-5 minutes, the cell lysate plate was transferred to ice for RT-qPCR reaction setup. The lysates could also be frozen at −80° C. for later use.
(§5) In some cases, a direct lysis buffer was used. An appropriate volume of 3× lysis buffer (10 mM Tris, 150 mM NaCl, 1.5%-2.5% Igepal and 0.1-1 U/uL RNAsin, pH 7.4) was directly added to either K562 or A673 cells in media and mixed by pipetting 3 times. The plates were then incubated at room temperature with shaking/rocking for 20-50 minutes to allow for lysis to take place. After this time, the cell lysate plate was transferred to ice to set up for the RT-qPCR reactions. The lysates could also be frozen at −80° C. for later use.
(§6) To set up 10 uL RT-qPCR reactions, cell lysates were transferred to 384-well qPCR plates containing the master mix according to the table below. The plates were sealed, gently vortexed, and spun down before the run. The volumes were adjusted accordingly in some instances where the reaction was carried in 20 μL. The table below summarizes the components of the RT-qPCR reactions:
(§7) The RT-qPCR reaction was performed using a QuantStudio (ThermoFisher) under the following fast cycling conditions. […]

MYB mRNA = assay: RT-qPCR splicing assay, MYB mRNA canonical (CJ) and alternative (AJ) junction; assay type: cell-based, human
Experimental: as §1, §2, §3, §4, §5, §6, §7

SMN2 mRNA = assay: RT-qPCR splicing assay, SMN2 mRNA; assay type: cell-based, human; conditions: canonical junction qPCR panel, Table 4, read-out: SMN2 IC50 (decrease in CJ mRNA levels)
Experimental: as §1, §2, §3, §4, §5, §6, §7

K562 cells = assay: Cell Titer Glo 2.0 cell viability (toxicity) assay, K562; conditions: 500 cells/well, 72 hours
[1] = Homo sapiens, RT-qPCR, HTT alternative junction mRNA increase, read-out: HTT AJ (increase in alternative junction mRNA, AC50)
[2] = Homo sapiens, RT-qPCR, HTT canonical junction mRNA decrease, read-out: HTT CJ (decrease in canonical junction mRNA, IC50)
[3] = Homo sapiens, canonical junction qPCR panel, Table 4, read-out: HTT IC50 (decrease in CJ mRNA levels)
[4] = Homo sapiens, RT-qPCR, MYB alternative junction mRNA increase, read-out: MYB AJ (increase in alternative junction mRNA, AC50)
[5] = Homo sapiens, RT-qPCR, MYB canonical junction mRNA decrease, read-out: MYB CJ (decrease in canonical junction mRNA, IC50)
[6] = Homo sapiens, canonical junction qPCR panel, Table 4, read-out: MYB IC50 (decrease in CJ mRNA levels)

Row | IC50 (HTT mRNA; [2]) | IC50 (HTT mRNA; [3]) | IC50 (MYB mRNA; [5]) | IC50 (MYB mRNA; [6]) | IC50 (SMN2 mRNA; Homo sapiens) | IC50 (HTT mRNA; Homo sapiens, HTT canonical junction mRNA, RT-qPCR, read-out: HTT CJ (decrease in CJ mRNA levels, IC50)) | IC50 (MYB mRNA; Homo sapiens, MYB canonical junction mRNA, RT-qPCR, read-out: MYB CJ (decrease in CJ mRNA levels, IC50)) | IC50 (HTT mRNA; HTT canonical junction mRNA, RT-qPCR, read-out: HTT CJ (decrease in CJ mRNA levels, IC50)) | IC50 (HTT mRNA; canonical junction qPCR panel, Table 4, read-out: HTT IC50 (decrease in CJ mRNA levels)) | IC50 (MYB mRNA; MYB canonical junction mRNA, RT-qPCR, read-out: MYB CJ (decrease in CJ mRNA levels, IC50)) | IC50 (MYB mRNA; canonical junction qPCR panel, Table 4, read-out: MYB IC50 (decrease in CJ mRNA levels)) | IC50 (SMN2 mRNA) | Structure (SMILES) | AC50 (HTT mRNA; [1]) | AC50 (MYB mRNA; [4]) | Effect of Exemplary Compounds on Cell Viability, K562 (K562 cells) | AC50 (HTT mRNA; Homo sapiens, HTT alternative junction mRNA, RT-qPCR, read-out: HTT AJ (increase in AJ mRNA, AC50)) | AC50 (MYB mRNA; Homo sapiens, MYB alternative junction mRNA, RT-qPCR, read-out: MYB AJ (increase in AJ mRNA, AC50)) | AC50 (HTT mRNA; HTT alternative junction mRNA, RT-qPCR, read-out: HTT AJ (increase in AJ mRNA, AC50)) | AC50 (MYB mRNA; MYB alternative junction mRNA, RT-qPCR, read-out: MYB AJ (increase in AJ mRNA, AC50))
1 | 100 to 1000 nM | 100 to 1000 nM | < 100 nM | < 100 nM | < 100 nM | – | – | – | – | – | – | – | C[C@H]1CN(c2ccc3nc(-c4cc(F)c5nc(CO)cn5c4)ncc3c2)C[C@H](C)N1 (single isomer, unassigned) [Compound 828] | 1000 to 10000 nM | < 100 nM | B (B represents 100-1000 nM) | – | – | – | –
2 | 100 to 1000 nM | 100 to 1000 nM | < 100 nM | < 100 nM | < 100 nM | – | – | – | – | – | – | – | C[C@H]1CN(c2ccc3nc(-c4cc(F)c5nc(CF)cn5c4)ncc3c2)C[C@H](C)N1 [Compound 829, 6-[(3S,5S)-3,5-dimethylpiperazin-1-yl]-2-[8-fluoro-2-(fluoromethyl)imidazo[1,2-a]pyridin-6-yl]quinazoline] | 100 to 1000 nM | 100 to 1000 nM | B (B represents 100-1000 nM) | – | – | – | –
3 | 1000 to 10000 nM | 1000 to 10000 nM | 100 to 1000 nM | 100 to 1000 nM | < 100 nM | – | – | – | – | – | – | – | COc1cc(-c2ncc3cc(N4C[C@@H](C)N[C@@H](C)C4)ccc3n2)cn2cc(C)nc12 [Compound 830] | > 10000 nM | 100 to 1000 nM | B (B represents 100-1000 nM) | – | – | – | –
4 | 100 to 1000 nM | 100 to 1000 nM | < 100 nM | < 100 nM | < 100 nM | – | – | – | – | – | – | – | Cc1cn2cc(-c3ncc4cc(N5C[C@@H](C)N[C@@H](C)C5)ccc4n3)cc(C#N)c2n1 [Compound 831] | 1000 to 10000 nM | < 100 nM | B (B represents 100-1000 nM) | – | – | – | –

Second part, the compound before the results:

Row | Structure (SMILES) | IC50 (HTT mRNA; [2]) | IC50 (HTT mRNA; [3]) | IC50 (MYB mRNA; [5]) | IC50 (MYB mRNA; [6]) | IC50 (SMN2 mRNA; Homo sapiens) | IC50 (HTT mRNA; Homo sapiens, HTT canonical junction mRNA, RT-qPCR, read-out: HTT CJ (decrease in CJ mRNA levels, IC50)) | IC50 (MYB mRNA; Homo sapiens, MYB canonical junction mRNA, RT-qPCR, read-out: MYB CJ (decrease in CJ mRNA levels, IC50)) | IC50 (HTT mRNA; HTT canonical junction mRNA, RT-qPCR, read-out: HTT CJ (decrease in CJ mRNA levels, IC50)) | IC50 (HTT mRNA; canonical junction qPCR panel, Table 4, read-out: HTT IC50 (decrease in CJ mRNA levels)) | IC50 (MYB mRNA; MYB canonical junction mRNA, RT-qPCR, read-out: MYB CJ (decrease in CJ mRNA levels, IC50)) | IC50 (MYB mRNA; canonical junction qPCR panel, Table 4, read-out: MYB IC50 (decrease in CJ mRNA levels)) | IC50 (SMN2 mRNA) | AC50 (HTT mRNA; [1]) | AC50 (MYB mRNA; [4]) | Effect of Exemplary Compounds on Cell Viability, K562 (K562 cells) | AC50 (HTT mRNA; Homo sapiens, HTT alternative junction mRNA, RT-qPCR, read-out: HTT AJ (increase in AJ mRNA, AC50)) | AC50 (MYB mRNA; Homo sapiens, MYB alternative junction mRNA, RT-qPCR, read-out: MYB AJ (increase in AJ mRNA, AC50)) | AC50 (HTT mRNA; HTT alternative junction mRNA, RT-qPCR, read-out: HTT AJ (increase in AJ mRNA, AC50)) | AC50 (MYB mRNA; MYB alternative junction mRNA, RT-qPCR, read-out: MYB AJ (increase in AJ mRNA, AC50))
5 | Cn1cc2cc(-c3ccc4nc(N5CCN6CCCC6C5)ccc4n3)c(O)cc2n1 (stereo not shown) [Compound 134] | – | 1000 to 10000 nM | – | 100 to 1000 nM | < 100 nM | 1000 to 10000 nM | 100 to 1000 nM | – | – | – | – | – | – | – | C (C represents 1000-9999 nM) | 1000 to 10000 nM | 100 to 1000 nM | – | –
6 | Cc1c(O)c(-c2ccc3nc(N4CCC(NC(C)(C)C)C4)ccc3n2)cc2cn(C)nc12 (stereo not shown) [Compound 275] | – | – | – | – | – | – | – | < 100 nM | < 100 nM | < 100 nM | < 100 nM | < 100 nM | – | – | – | – | – | < 100 nM | < 100 nM
7 | Cc1cn2cc(-c3ncc4cc(N5C[C@H](C)N[C@@H](C)C5)ccc4n3)ccc2n1 [Compound 827] | 1000 to 10000 nM | 1000 to 10000 nM | 100 to 1000 nM | 100 to 1000 nM | < 100 nM | – | – | – | – | – | – | – | 1000 to 10000 nM | 100 to 1000 nM | B (B represents 100-1000 nM) | – | – | – | –

From US20250092065A1, “2-(INDAZOL-5-YL)-6-(PIPERIDIN-4-YL)-1,7-NAPHTHYRIDINE DERIVATIVES AND RELATED COMPOUNDS AS MODULATORS FOR SPLICING NUCLEIC ACIDS AND FOR THE TREATMENT OF PROLIFERATIVE DISEASES” (REMIX THERAPEUTICS INC., priority 2022, published 2025)
